In patent publication US11377442B2, “Small molecule agonists and antagonists of NR2F6 activity” (ZANDER THERAPEUTICS, INC., priority 2016, dated 2022):
Read-outs that look alike come from different tables or passages of the source. Each block holds one compound with its values, some of them ahead of it.

Columns and labels:
Type in all cases: cell-based
NR2F6 = target: T1, NR2F6 (Homo sapiens, UniProt P10588); assay: NR2F6 agonist screening, Firefly signal cmpd/DMSO
T1 construct: expressed in transfected cells; also transient transfection
T1 sequence (P10588 1-404): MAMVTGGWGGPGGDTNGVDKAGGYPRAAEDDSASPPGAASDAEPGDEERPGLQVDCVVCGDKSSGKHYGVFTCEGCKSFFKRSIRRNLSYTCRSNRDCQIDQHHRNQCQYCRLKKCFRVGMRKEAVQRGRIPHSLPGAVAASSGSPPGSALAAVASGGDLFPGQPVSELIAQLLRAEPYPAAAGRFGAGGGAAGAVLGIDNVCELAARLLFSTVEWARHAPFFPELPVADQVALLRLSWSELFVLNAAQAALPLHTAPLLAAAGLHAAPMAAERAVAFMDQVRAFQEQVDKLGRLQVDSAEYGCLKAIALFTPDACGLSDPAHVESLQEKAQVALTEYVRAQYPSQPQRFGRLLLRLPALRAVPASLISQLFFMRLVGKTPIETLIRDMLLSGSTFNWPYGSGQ

ERα = target: T2, ERα (Homo sapiens, UniProt P03372); assay: Counterscreening, Firefly signal with ERα transient transfection (Firefly_ERa); details: ERα transient transfection, 10 μM
T2 construct: expressed in transfected cells
T2 sequence (P03372 1-595): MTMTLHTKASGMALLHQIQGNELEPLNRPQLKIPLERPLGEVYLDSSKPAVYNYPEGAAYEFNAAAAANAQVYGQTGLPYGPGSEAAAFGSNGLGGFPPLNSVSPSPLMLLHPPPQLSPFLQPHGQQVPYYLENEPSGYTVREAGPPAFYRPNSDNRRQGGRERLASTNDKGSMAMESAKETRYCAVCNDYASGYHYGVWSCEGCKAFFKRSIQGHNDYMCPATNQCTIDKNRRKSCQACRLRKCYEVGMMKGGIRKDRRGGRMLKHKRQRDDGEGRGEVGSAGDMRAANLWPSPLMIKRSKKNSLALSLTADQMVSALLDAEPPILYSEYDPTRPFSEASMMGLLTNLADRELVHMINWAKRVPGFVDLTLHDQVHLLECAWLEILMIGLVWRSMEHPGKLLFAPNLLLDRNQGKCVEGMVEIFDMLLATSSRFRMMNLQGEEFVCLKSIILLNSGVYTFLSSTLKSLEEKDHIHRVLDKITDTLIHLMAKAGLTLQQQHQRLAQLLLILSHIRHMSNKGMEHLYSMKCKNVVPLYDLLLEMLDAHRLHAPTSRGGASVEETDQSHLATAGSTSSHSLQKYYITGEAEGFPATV
Method: The methodology for screening candidate compounds as NR2F6 agonists was as follows: For primary screening, hit criteria was ACT %>DMSO control+5*SD (DSO control) at 10 μM, or any compound with S/B>2. For rescreening, hit criteria was ACT %>DMSO control+3*SD (DSO control) in each replicate at 10 μM. For counterscreening, hit criteria was mean ACT<DMSO control+3*SD (DMSO control) with ERα transient transfection in duplicate at 10 μM.

Renilla = Renilla signal in NR2F6 agonist screening, cmpd/DMSO; details: for fold induction at 0.5 µM / fold induction at 2 µM / fold induction at 10 µM / fold induction at 40 µM: Renilla, F4
Renilla_ERa = assay: Renilla signal in ERα counterscreen (Renilla_ERa); details: ERα transient transfection, 10 μM
NR2F6 LBD = target: T3, NR2F6 LBD (Homo sapiens, UniProt P10588); assay: NR2F6 LBD transient transfection; details: LBD
T3 construct: expressed in transfected cells
T3 sequence (P10588 165-393 limits assumed): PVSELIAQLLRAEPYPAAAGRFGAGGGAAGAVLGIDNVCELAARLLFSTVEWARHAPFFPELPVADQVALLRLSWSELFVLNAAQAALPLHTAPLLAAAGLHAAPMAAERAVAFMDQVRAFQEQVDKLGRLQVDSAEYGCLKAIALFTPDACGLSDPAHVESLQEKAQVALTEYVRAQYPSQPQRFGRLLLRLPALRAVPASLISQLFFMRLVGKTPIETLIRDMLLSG
How it was run: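 LBD-transfected cells treated at 40, 10, 2 and 0.5 μM (4 replicates); cytotoxicity measured in parallel, normalized to DMSO (0%) and zero signal (100%). Higher concentrations excluded where signal loss reflected toxicity.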

HEK293 pGL4 = assay: Firefly_pGL signal, cmpd/DMSO (pGL4 control cells); details: Homo sapiens
[1] = first set screening, 10 μM, repeat 1
[2] = first set screening, 10 μM, repeat 2
[3] = HEK293, 0.5 uM, pGL4, read-out: Firefly pGL4, cmpd/DMSO (mean)
[4] = HEK293, 2 uM, pGL4, read-out: Firefly pGL4, cmpd/DMSO (mean)
[5] = HEK293, 10 uM, pGL4, read-out: Firefly pGL4, cmpd/DMSO (mean)
[6] = HEK293, 40 uM, pGL4, read-out: Firefly pGL4, cmpd/DMSO (mean)
[7] = HEK293, pGL4, 1% FBS, 0.5 uM, read-out: Firefly, pGL4, 1% FBS, cmpd/DMSO (mean)
[8] = HEK293, pGL4, 1% FBS, 2 uM, read-out: Firefly, pGL4, 1% FBS, cmpd/DMSO (mean)
[9] = HEK293, pGL4, 1% FBS, 10 uM, read-out: Firefly, pGL4, 1% FBS, cmpd/DMSO (mean)
[10] = HEK293, pGL4, 1% FBS, 40 uM, read-out: Firefly, pGL4, 1% FBS, cmpd/DMSO (mean)
[11] = HEK293, pGL4, 10% FBS, 0.5 uM, read-out: Firefly, pGL4, 10% FBS, cmpd/DMSO (mean)
[12] = HEK293, pGL4, 10% FBS, 2 uM, read-out: Firefly, pGL4, 10% FBS, cmpd/DMSO (mean)
[13] = HEK293, pGL4, 10% FBS, 10 uM, read-out: Firefly, pGL4, 10% FBS, cmpd/DMSO (mean)
[14] = HEK293, pGL4, 10% FBS, 40 uM, read-out: Firefly, pGL4, 10% FBS, cmpd/DMSO (mean)
[15] = read-out: Renilla, F4, cmpd/DMSO (mean)
[16] = 1% FBS, read-out: Renilla, F4, 1% FBS, cmpd/DMSO (mean)
[17] = 10% FBS, read-out: Renilla, F4, 10% FBS, cmpd/DMSO (mean)

Firefly, cmpd/DMSO repeat 1 (NR2F6; [1]): 3.0
Firefly, cmpd/DMSO repeat 2 (NR2F6; [2]): 1.9
Firefly_ERa, cmpd/DMSO repeat 1 (ERα; repeat 1): 1.8
Firefly_ERa, cmpd/DMSO repeat 2 (ERα; repeat 2): 1.8
Structure (SMILES): Nc1nonc1-c1noc(-c2cccc(COc3ccc(Cl)cc3Cl)c2)n1 [Compound 23]
Renilla, cmpd/DMSO repeat 1 (Renilla; [1]): 4.6
Renilla, cmpd/DMSO repeat 2 (Renilla; [2]): 3.4
Renilla_ERa, cmpd/DMSO repeat 1 (Renilla_ERa; repeat 1): 1.1
Renilla_ERa, cmpd/DMSO repeat 2 (Renilla_ERa; repeat 2): 1.2

Firefly F4, cmpd/DMSO (mean) (NR2F6; 0.5 uM): 1.2
Firefly F4, cmpd/DMSO (mean) (NR2F6; 2 uM): 2.0
Firefly F4, cmpd/DMSO (mean) (NR2F6; 10 uM): 4.3
Firefly F4, cmpd/DMSO (mean) (NR2F6; 40 uM): 3.4
F4, Firefly/Renilla for S/B(F4) > 3 (NR2F6; 10% FBS, 40 uM): 2.6
Firefly, F4/pGL4 for S/B(F4) > 3 (NR2F6; 10% FBS, 40 uM): 1.8
Firefly, F4, 1% FBS, cmpd/DMSO (mean) (NR2F6; 0.5 uM): 0.9
Firefly, F4, 1% FBS, cmpd/DMSO (mean) (NR2F6; 2 uM): 1.1
Firefly, F4, 1% FBS, cmpd/DMSO (mean) (NR2F6; 10 uM): 2.9
Firefly, F4, 1% FBS, cmpd/DMSO (mean) (NR2F6; 40 uM): 1.4
Firefly, F4, 10% FBS, cmpd/DMSO (mean) (NR2F6; 10% FBS, 0.5 uM): 1.1
Firefly, F4, 10% FBS, cmpd/DMSO (mean) (NR2F6; 10% FBS, 2 uM): 0.8
Firefly, F4, 10% FBS, cmpd/DMSO (mean) (NR2F6; 10% FBS, 10 uM): 1.9
Firefly, F4, 10% FBS, cmpd/DMSO (mean) (NR2F6; 10% FBS, 40 uM): 4.1
Firefly LBD, cmpd/DMSO (mean) (NR2F6 LBD; 0.5 uM): 1.1
Firefly LBD, cmpd/DMSO (mean) (NR2F6 LBD; 2 uM): 1.7
Firefly LBD, cmpd/DMSO (mean) (NR2F6 LBD; 10 uM): 2.7
Firefly LBD, cmpd/DMSO (mean) (NR2F6 LBD; 40 uM): 2.4
Structure (SMILES): COc1ccc(CCN[C@H]2CS(=O)(=O)C[C@@H]2S(=O)(=O)c2ccc(Cl)cc2)cc1OC [Compound D129]
fold induction at 0.5 µM (HEK293 pGL4; [3]): 1.4
fold induction at 2 µM (HEK293 pGL4; [4]): 1.5
fold induction at 10 µM (HEK293 pGL4; [5]): 2.9
fold induction at 40 µM (HEK293 pGL4; [6]): 1.6
fold induction at 0.5 µM (HEK293 pGL4; [7]): 1.4
fold induction at 2 µM (HEK293 pGL4; [8]): 1.2
fold induction at 10 µM (HEK293 pGL4; [9]): 1.9
fold induction at 40 µM (HEK293 pGL4; [10]): 1.6
fold induction at 0.5 µM (HEK293 pGL4; [11]): 1
fold induction at 2 µM (HEK293 pGL4; [12]): 1
fold induction at 10 µM (HEK293 pGL4; [13]): 2
fold induction at 40 µM (HEK293 pGL4; [14]): 2.2
fold induction at 0.5 µM (Renilla; [15]): 1.1
fold induction at 2 µM (Renilla; [15]): 1.2
fold induction at 10 µM (Renilla; [15]): 1.4
fold induction at 40 µM (Renilla; [15]): 1.6
fold induction at 0.5 µM (Renilla; [16]): 1.1
fold induction at 2 µM (Renilla; [16]): 1.1
fold induction at 10 µM (Renilla; [16]): 1.6
fold induction at 40 µM (Renilla; [16]): 1.5
fold induction at 0.5 µM (Renilla; [17]): 1
fold induction at 2 µM (Renilla; [17]): 0.9
fold induction at 10 µM (Renilla; [17]): 1.1
fold induction at 40 µM (Renilla; [17]): 1.5

Firefly F4, cmpd/DMSO (mean) (NR2F6; 0.5 uM): 1.0
Firefly F4, cmpd/DMSO (mean) (NR2F6; 2 uM): 1.4
Firefly F4, cmpd/DMSO (mean) (NR2F6; 10 uM): 1.8
Firefly F4, cmpd/DMSO (mean) (NR2F6; 40 uM): 1.3
Firefly, F4, 1% FBS, cmpd/DMSO (mean) (NR2F6; 0.5 uM): 0.8
Firefly, F4, 1% FBS, cmpd/DMSO (mean) (NR2F6; 2 uM): 0.8
Firefly, F4, 1% FBS, cmpd/DMSO (mean) (NR2F6; 10 uM): 1.2
Firefly, F4, 1% FBS, cmpd/DMSO (mean) (NR2F6; 40 uM): 0.9
Firefly, F4, 10% FBS, cmpd/DMSO (mean) (NR2F6; 10% FBS, 0.5 uM): 1.5
Firefly, F4, 10% FBS, cmpd/DMSO (mean) (NR2F6; 10% FBS, 2 uM): 0.9
Firefly, F4, 10% FBS, cmpd/DMSO (mean) (NR2F6; 10% FBS, 10 uM): 1.0
Firefly, F4, 10% FBS, cmpd/DMSO (mean) (NR2F6; 10% FBS, 40 uM): 1.0
Firefly LBD, cmpd/DMSO (mean) (NR2F6 LBD; 0.5 uM): 1.1
Firefly LBD, cmpd/DMSO (mean) (NR2F6 LBD; 2 uM): 1.1
Firefly LBD, cmpd/DMSO (mean) (NR2F6 LBD; 10 uM): 1.4
Firefly LBD, cmpd/DMSO (mean) (NR2F6 LBD; 40 uM): 1.1
Structure (SMILES): CC(=O)Nc1ccc(S(=O)(=O)[C@H]2CS(=O)(=O)C[C@@H]2NC2CC2)cc1 [Compound D133]
fold induction at 0.5 µM (HEK293 pGL4; [3]): 1.1
fold induction at 2 µM (HEK293 pGL4; [4]): 1.1
fold induction at 10 µM (HEK293 pGL4; [5]): 1.9
fold induction at 40 µM (HEK293 pGL4; [6]): 1.1
fold induction at 0.5 µM (HEK293 pGL4; [7]): 1.3
fold induction at 2 µM (HEK293 pGL4; [8]): 1.1
fold induction at 10 µM (HEK293 pGL4; [9]): 1.3
fold induction at 40 µM (HEK293 pGL4; [10]): 1
fold induction at 0.5 µM (HEK293 pGL4; [11]): 0.9
fold induction at 2 µM (HEK293 pGL4; [12]): 0.9
fold induction at 10 µM (HEK293 pGL4; [13]): 1.3
fold induction at 40 µM (HEK293 pGL4; [14]): 1.2
fold induction at 0.5 µM (Renilla; [15]): 1
fold induction at 2 µM (Renilla; [15]): 1
fold induction at 10 µM (Renilla; [15]): 1.1
fold induction at 40 µM (Renilla; [15]): 1.1
fold induction at 0.5 µM (Renilla; [16]): 1
fold induction at 2 µM (Renilla; [16]): 1
fold induction at 10 µM (Renilla; [16]): 1
fold induction at 40 µM (Renilla; [16]): 1.1
fold induction at 0.5 µM (Renilla; [17]): 0.9
fold induction at 2 µM (Renilla; [17]): 0.9
fold induction at 10 µM (Renilla; [17]): 1
fold induction at 40 µM (Renilla; [17]): 1
